Here are results for two compounds from patent US20230416679A1, “METHODS AND COMPOSITIONS FOR IN-VITRO AUGMENTATION OF MILK PRODUCTION FROM MAMMARY EPITHELIAL CELLS” (Wilk Technologies International Ltd., priority 2021, published 2023).

“Also recorded” adds a separate entry of the source.

Holding throughout (type): cell-based
The subject of data set [1] is primary culture of bovine mammary epithelial cells. As to the kind of experiment: Intracellular triglyceride content in cell lysates (lipid extraction, HPLC-ELSD). The note with it: 48 hours, cell lysates. The text has this:
For all the experiments, primary culture of bovine mammary epithelial cells were used. The cells were isolated from 3 lactating Holstein cows according to an established protocol (Cohen et al., 2015 supra). Study protocols were in compliance with the regulations of the Israeli Ministry of Health, under the supervision of the Department for Control of Animal Products, State of Israel Ministry of Agriculture Rural Development Veterinary Services and Animal Health. Certificate Nu: #80. After isolation, 60,000 cells were plated in a 35-mm plastic dish on glass cover slips for all florescence staining experiments. For production analysis, 150,000 cells were plated in a 60-mm plastic dish for lipids, protein, and lactose extraction. Oxygen consumption assay was performed by using Seahorse system (Agilent, USA); cells were plated in 24-well plate (20,000 cells/well) and incubated with DMEM/F12, with 0.15% (v/v) bovine serum albumin and insulin (1 μg/ml), hydrocortisone (0.5 μg/ml) and prolactin (1 μg/ml) for 48 h to induce lactogenic response. Then cells were treated with three different P. lentiscus extracts: ethyl acetate, hexane and chloroform, according to the protocol that was used before (Azaizeh et al., 2013). The extracts were diluted with DMEM/F12 medium supplemented with Dimethyl Sulfoxide (DMSO) in a final concentration of 0.1% for better dissolution of the extractions. […] The treatment was given in the presence of insulin (1 μg/ml), hydrocortisone (0.5 μg/ml) and prolactin (1 μg/ml). […] Otherwise, cells were fixed for florescence staining or plates taken to seahorse for oxygen consumption rate measurement.
After treatment, total lipids were extracted from harvested cells and from collected medium. The medium or the cells were diluted by 20 times Folch reagent (Chloroform-Methanol 2:1). After overnight incubation with cold extraction at 4° C., the upper phase was removed, and the lower phase was filtered through glass wool. Samples were then evaporated under a nitrogen stream at 65° C., diluted in 100 μl chloroform:methanol (97:3, v/v) and stored at −20° C. until injection for HPLC analysis. […] Quantification was performed against external standard curves and expressed as μg/per 10^6 live cells or as weight % out of the sum of phospholipids (μg) in the sample. Live cell number was determined with a hemocytometer after 5 min of trypan blue staining. […]
Cells were incubated with 360 uM oleic acid (O) with or without 1.2 mM beta hydroxybutyrate (BHBA, H). The concentration of triglyceride was measured in cell lysates.

The test system is the same in data set [2]. As to the kind of experiment: Triglyceride / fat secreted to the medium by mammary epithelial cells (Nile red staining, HPLC-ELSD). The note with it: 100 uM oleic acid in the presence of BSA; 24 h; Nile red. The text has this: For all the experiments, primary culture of bovine mammary epithelial cells were used. The cells were isolated from 3 lactating Holstein cows according to an established protocol (Cohen et al., 2015 supra). Study protocols were in compliance with the regulations of the Israeli Ministry of Health, under the supervision of the Department for Control of Animal Products, State of Israel Ministry of Agriculture Rural Development Veterinary Services and Animal Health. Certificate Nu: #80. After isolation, 60,000 cells were plated in a 35-mm plastic dish on glass cover slips for all florescence staining experiments. For production analysis, 150,000 cells were plated in a 60-mm plastic dish for lipids, protein, and lactose extraction. […] After 24 h of incubation, medium was collected for triglyceride and phospholipid quantification, and cells were harvested for cell counting, lipid, lactose or protein extraction. […]
After treatment, total lipids were extracted from harvested cells and from collected medium. […] Quantification was performed against external standard curves and expressed as μg/per 10^6 live cells or as weight % out of the sum of phospholipids (μg) in the sample. Live cell number was determined with a hemocytometer after 5 min of trypan blue staining. […]

For data set [3] the test system is unchanged. As to the kind of experiment: Intracellular lipid droplets fluorescence staining (Nile red / DAPI). The note with it: primary MEC; Nile red / Dapi staining (FIG. 2). The text has this: For all the experiments, primary culture of bovine mammary epithelial cells were used. The cells were isolated from 3 lactating Holstein cows according to an established protocol (Cohen et al., 2015 supra). Study protocols were in compliance with the regulations of the Israeli Ministry of Health, under the supervision of the Department for Control of Animal Products, State of Israel Ministry of Agriculture Rural Development Veterinary Services and Animal Health. Certificate Nu: #80. After isolation, 60,000 cells were plated in a 35-mm plastic dish on glass cover slips for all florescence staining experiments. […] After 24 h of incubation, medium was collected for triglyceride and phospholipid quantification, and cells were harvested for cell counting, lipid, lactose or protein extraction. […] Cover slips were then rinsed four times with PBS and mounted with fluorescence mounting medium (Dako, North America Inc., Carpinteria, CA). Slides were visualized with an Olympus BX40 fluorescence microscope equipped with an Olympus DP73 digital camera using CellSens Entry software (version 1.7, Olympus). Lipid droplet diameter was measured using ImageJ software (version 1.48, NIH, Bethesda, MD). […] The effect of oleic acid on accumulation of fat in primary culture of mammary epithelial cells was determined using Nile red staining (red). […]

With `CC(O)CC(=O)O` (stereo not drawn) [BHBA, β-hydroxybutirate], the “triglyceride content in the cells” value in data set [1] (1.2 mM BHBA added to 360 uM oleic acid) is on record as roughly 90 ug/10^6 cells.
With `CCCCCCCC/C=C\CCCCCCCC(=O)O` [oleic acid], the “fat content (triglyceride) in medium collected from cells compared with control” value in data set [2] was “higher; also recorded: increases”. In addition, the “oleic acid concentration at which toxic effect is evident” value in data set [3] is reported as “over 1 mM”. In data set [1] (360 uM oleic acid), the “increase of triglyceride content in the cells” value is 4 fold.
